Measured values taken from patent US20240025906A1 (NEURON23, INC., priority 2022, published 2024).

target: T1, TYK2 JH2 (Homo sapiens, UniProt P29597); experiment: TYK2 JH2 binding assay (KINOMEscan KdELECT competitive binding); settings: TYK2 JH2 domain, DiscoverX KINOMEscan KdELECT (Assay A); read-out: Biochemical TYK2_DiscoverX_JH2_BND_Kd
T1 construct: purchased DiscoverX (KINOMEscan KdELECT service); host or cells: E. coli BL21-derived (T7 phage display) or HEK-293
Method: Assay A: TYK2 JH2 Binding Assay
Competitive binding studies using TKY2 JH2-domain fragments were conducted by DiscoverX using the KINOMEscan (KdELECT) platform. Kinase-tagged T7 phage strains were prepared in an E. coli host derived from the BL21 strain. E. coli were grown to log-phase and infected with […] and incubated with shaking at 32° C. until lysis. The lysates were centrifuged and filtered to remove cell debris. The remaining kinases were produced in HEK-293 cells and subsequently tagged with DNA for qPCR detection. Streptavidin-coated magnetic beads were treated with biotinylated small molecule ligands for 30 minutes at room temperature to generate affinity resins for kinase assays. The liganded beads were blocked with excess biotin and washed with blocking buffer (SeaBlock (Pierce), 1% BSA, 0.05% Tween 20, 1 mM DTT) to remove unbound ligand and to reduce non-specific binding. Binding reactions were assembled by combining kinases, liganded affinity beads, and test compounds in 1× binding buffer (20% SeaBlock, 0.17×PBS, 0.05% Tween 20, 6 mM DTT). Test compounds were prepared as 111× stocks in 100% DMSO. Kds were determined using an 11-point 3-fold compound dilution series with three DMSO control points. All compounds for Kd measurements are distributed by acoustic transfer (non-contact dispensing) in 100% DMSO. The compounds were then diluted directly into the assays such that the final concentration of DMSO was 0.9%. All reactions performed in polypropylene 384-well plate. Each was a final volume of 0.02 ml. The assay plates were incubated at room temperature with shaking for 1 hour and the affinity beads were washed with wash buffer (1×PBS, 0.05% Tween 20). The beads were then re-suspended in elution buffer (1×PBS, 0.05% Tween 20, 0.5 μM non-biotinylated affinity ligand) and incubated at room temperature with shaking for 30 minutes. The kinase concentration in the eluates was measured by qPCR.

T1 sequence (P29597 589-875 limits assumed): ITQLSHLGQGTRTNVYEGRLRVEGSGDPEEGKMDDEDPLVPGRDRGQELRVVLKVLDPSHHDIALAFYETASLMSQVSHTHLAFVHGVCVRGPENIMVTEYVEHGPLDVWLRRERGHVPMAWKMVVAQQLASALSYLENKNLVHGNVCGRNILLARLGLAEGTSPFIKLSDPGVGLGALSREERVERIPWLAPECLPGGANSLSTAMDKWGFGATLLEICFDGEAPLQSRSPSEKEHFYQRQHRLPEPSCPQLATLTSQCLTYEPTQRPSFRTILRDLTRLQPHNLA

Kd | SMILES
≤ 100 nM | CCOC(=O)[C@H]1C[C@@H]1C(=O)Nc1cc2c(-c3nc4cc(OC)ccc4o3)cnc(NC)c2cn1 (racemic) [Example 392, ethyl 2-((5-(5-methoxybenzo[d]oxazol-2-y1)-8-(methylamino)-2,7-naphthyridin-3-yl)carbamoyl)cyclopropane-1-carboxylate]
100 to 1000 nM | CNc1ncc(-c2nc3cc(OCc4ccccc4)ccc3o2)c2cc(Nc3ccc(OCc4ccccc4)cn3)ncc12 [Example 430, 4-(5-(benzyloxy)benzo[d]oxazol-2-yl)-N^6-(5-(benzyloxy)pyridin-2-yl)-N^1-methyl-2,7-naphthyridine-1,6-diamine]

same assay, conditions: TYK2 JH2 domain, KINOMEscan KdELECT (Assay A); read-out: Biochemical TYK2_DiscoverX_JH2_BND_Kd

Kd | SMILES
≤ 100 nM | CNc1ncc(-c2noc(C)n2)c2cc(NC(=O)C3CC3)ncc12 [Example 837, N-(5-(5-methyl-1,2,4-oxadiazol-3-yl)-8-(methylamino)-2,7-naphthyridin-3-yl)cyclopropanecarboxamide]
≤ 100 nM | CNc1ncc(CCc2cccc(S(C)(=O)=O)c2)c2cc(NC(=O)C3CC3)ncc12 [Example 838, N-(8-(methylamino)-5-(3-(methylsulfonyl)phenethyl)-2,7-naphthyridin-3-yl)cyclopropanecarboxamide]
100 to 1000 nM | CNc1ncc(C(=O)N2CCCC2)c2cc(NC(=O)C3CC3)ncc12 [Example 840, N-(8-(methylamino)-5-(pyrrolidine-1-carbonyl)-2,7-naphthyridin-3-yl)cyclopropanecarboxamide]
100 to 1000 nM | CNc1ncc(-c2nnc3n2CCC3)c2cc(NC(=O)C3CC3)ncc12 [Example 854, N-(5-(6,7-dihydro-5H-pyrrolo[2,1-c][1,2,4]triazol-3-yl)-8-(methylamino)-2,7-naphthyridin-3-yl)cyclopropanecarboxamide]
100 to 1000 nM | CNc1ncc(-c2cccn3nc(Br)nc23)c2cc(NC(=O)C3CC3)ncc12 [Example 856, N-(5-(2-bromo-[1,2,4]triazolo[1,5-a]pyridin-8-yl)-8-(methylamino)-2,7-naphthyridin-3-yl)cyclopropanecarboxamide]

same assay, conditions: TYK2 JH2 domain, KINOMEscan KdELECT (Assay A); read-out: Biochemical TYK2_JH2_Kd

SMILES | Kd
CNc1ncc(N2CCCS2(=O)=O)c2cc(NC(=O)C3CC3)ncc12 [Example 58, N-(5-(1,1-dioxidoisothiazolidin-2-yl)-8-(methylamino)-2,7-naphthyridin-3-yl)cyclopropanecarboxamide] | 100 to 1000 nM
CNc1ncc(N2Cc3cnccc3C2=O)c2cc(NC(=O)C3CC3)ncc12 [Example 59, N-(8-(methylamino)-5-(1-oxo-1,3-dihydro-2H-pyrrolo[3,4-c]pyridin-2-yl)-2,7-naphthyridin-3-yl)cyclopropanecarboxamide] | 1000 to 10000 nM
CNc1ncc(-n2ccccc2=O)c2cc(NC(=O)C3CC3)ncc12 [Example 61, N-(8-(methylamino)-5-(2-oxopyridin-1(2H)-yl)-2,7-naphthyridin-3-yl)cyclopropanecarboxamide] | 1000 to 10000 nM
CNc1ncc(-c2ccccc2)c2cc(NC3COC3)ncc12 [Example 97, N^1-methyl-N^6-(oxetan-3-yl)-4-phenyl-2,7-naphthyridine-1,6-diamine] | 100 to 1000 nM
CNc1ncc(-c2ccccc2)c2cc(NCc3ccccn3)ncc12 [Example 100, N^1-methyl-4-phenyl-N^6-(pyridin-2-ylmethyl)-2,7-naphthyridine-1,6-diamine] | 1000 to 10000 nM
CNc1ncc(-c2ccccc2)c2cc(Nc3ccccc3)ncc12 [Example 102] | 100 to 1000 nM
CNc1ncc(-c2cn(C)c3ncccc23)c2cc(NC(=O)C3CC3)ncc12 [Example 107, N-(5-(1-methyl-1H-pyrrolo[2,3-b]pyridin-3-yl)-8-(methylamino)-2,7-naphthyridin-3-yl)cyclopropanecarboxamide] | ≤ 100 nM
CNc1ncc(C(=O)N2CCC(Oc3ccccc3)CC2)c2cc(NC(=O)C3CC3)ncc12 [Example 121, N-(8-(methylamino)-5-(4-phenoxypiperidine-1-carbonyl)-2,7-naphthyridin-3-yl)cyclopropanecarboxamide] | 1000 to 10000 nM
CNc1ncc(-c2cc(-c3ccccc3)ns2)c2cc(NC(=O)C3CC3)ncc12 [Example 146, N-(8-(methylamino)-5-(3-phenylisothiazol-5-yl)-2,7-naphthyridin-3-yl)cyclopropanecarboxamide] | ≤ 100 nM
CNc1ncc(-c2nc3cccc(F)c3o2)c2cc(NC(=O)C3CC3)ncc12 [Example 185, N-(5-(7-fluorobenzo[d]oxazol-2-yl)-8-(methylamino)-2,7-naphthyridin-3-yl)cyclopropanecarboxamide] | ≤ 100 nM
CNc1ncc(-c2nc3cc(N4CCCC(N5CC(F)(F)C5)C4)ccn3n2)c2cc(NC(=O)C3CC3)ncc12 (stereo not drawn) [Example 190, N-(5-(7-(3-(3,3-difluoroazetidin-1-yl)piperidin-1-yl)-[1,2,4]triazolo[1,5-a]pyridin-2-yl)-8-(methylamino)-2,7-naphthyridin-3-yl)cyclopropanecarboxamide] | ≤ 100 nM
CNc1ncc(-c2nc3ccc(F)cn3n2)c2cc(NC(=O)C3CC3)ncc12 [Example 191, N-(5-(6-fluoro-[1,2,4]triazolo[1,5-a]pyridin-2-yl)-8-(methylamino)-2,7-naphthyridin-3-yl)cyclopropanecarboxamide] | ≤ 100 nM
CNc1ncc(-c2nc3cc(F)ccn3n2)c2cc(NC(=O)C3CC3)ncc12 [Example 194, N-(5-(7-fluoro-[1,2,4]triazolo[1,5-a]pyridin-2-yl)-8-(methylamino)-2,7-naphthyridin-3-yl)cyclopropanecarboxamide] | ≤ 100 nM

The next lines start with the values.

Kd | SMILES
100 to 1000 nM | CNc1ncc(-n2ccc(=O)cc2)c2cc(NC(=O)C3CC3)ncc12 [Example 60, N-(8-(methylamino)-5-(4-oxopyridin-1(4H)-yl)-2,7-naphthyridin-3-yl)cyclopropanecarboxamide]
≤ 100 nM | CNc1ncc(Oc2ccccn2)c2cc(NC(=O)C3CC3)ncc12 [Example 62, N-(8-(methylamino)-5-(pyridin-2-yloxy)-2,7-naphthyridin-3-yl)cyclopropanecarboxamide]
1000 to 10000 nM | CNc1ncc(-c2ccccc2)c2cc(NCc3ccccc3)ncc12 [Example 99, N^6-benzyl-N^1-methyl-4-phenyl-2,7-naphthyridine-1,6-diamine]
100 to 1000 nM | CNc1ncc(C(=O)N2CCCCC2)c2cc(NC(=O)C3CC3)ncc12 [Example 122, N-(8-(methylamino)-5-(piperidine-1-carbonyl)-2,7-naphthyridin-3-yl)cyclopropanecarboxamide]
≤ 100 nM | CNc1ncc(C(N)=O)c2cc(NC(=O)C3CC3)ncc12 [Example 123, 6-(cyclopropanecarboxamido)-1-(methylamino)-2,7-naphthyridine-4-carboxamide]
100 to 1000 nM | CSc1ncc(-c2ccccc2)c2cc(NC(=O)C3CC3)ncc12 [Example 159, N-(8-(methylthio)-5-phenyl-2,7-naphthyridin-3-yl)cyclopropanecarboxamide]
≤ 100 nM | CNc1ncc(-c2nc3cc(OC)ccc3o2)c2cc(NC(=O)C3CC3)ncc12 [Example 182, N-(5-(5-methoxybenzo[d]oxazol-2-yl)-8-(methylamino)-2,7-naphthyridin-3-yl)cyclopropanecarboxamide]
≤ 100 nM | CNc1ncc(-c2nc3cc(N4CC(F)(F)C4)ccn3n2)c2cc(NC(=O)C3CC3)ncc12 [Example 189, N-(5-(7-(3,3-difluoroazetidin-1-yl)-[1,2,4]triazolo[1,5-a]pyridin-2-yl)-8-(methylamino)-2,7-naphthyridin-3-yl)cyclopropanecarboxamide]
≤ 100 nM | CNc1ncc(-c2nc3cccc(F)n3n2)c2cc(NC(=O)C3CC3)ncc12 [Example 192, N-(5-(5-fluoro-[1,2,4]triazolo[1,5-a]pyridin-2-yl)-8-(methylamino)-2,7-naphthyridin-3-yl)cyclopropanecarboxamide]
≤ 100 nM | CNc1ncc(-c2nc3c(F)cccn3n2)c2cc(NC(=O)C3CC3)ncc12 [Example 193, N-(5-(8-fluoro-[1,2,4]triazolo[1,5-a]pyridin-2-yl)-8-(methylamino)-2,7-naphthyridin-3-yl)cyclopropanecarboxamide]
